According to patent US20040116652A1, “Method for producing and using novel human defensins as biologically active proteins for treating infections and other diseases” (priority 2000, published 2004):
Bridge positions count the residues as written; N and C are the ends. Ends that are not written are not given here.

Tests used:
Test in all cases: radial diffusion assay, antimicrobial effect
Type in all cases: cell-based
Design in all cases: key: (+) means the formation of an inhibition halo; (−) means no formation of an inhibition halo
Escherichia coli = test system: Escherichia coli
Description: (§1) In a radial diffusion assay, the activities stated in Table 1 could be measured for the peptides against different bacterial strains. In the Table, (+) means the formation of an inhibition halo, and (−) means no formation of an inhibition halo.

Saccharomyces cerevisiae = test system: Saccharomyces cerevisiae
Description: as §1

Staphylococcus carnosus = test system: Staphylococcus carnosus
Description: as §1

Sequence | formation of an inhibition halo (Escherichia coli) | formation of an inhibition halo (Saccharomyces cerevisiae) | formation of an inhibition halo (Staphylococcus carnosus)
NTICHMQQGICRLFFCHSGEKKRGICSDPWNRCCVSNTDEEGKEKPEMD (disulfide 4-33, 11-26, 16-34) [hBD10] | (+) | (+) | (+)
TPGGTQRCWNLYGKCRYRCSKKERVYVYCINNKMCCVKPKYQPKERWWPF (disulfide 8-35, 15-29, 19-36) [hBD17] | (+) | (+) | (+)
FIGLRRCLMGLGRCRDHCNVDEKEIQKCKMKKCCVGPKVVKLIK (disulfide 7-33, 14-28, 18-34) [hBD19] | (+) | (−) | (+)
